Assay results taken from patent publication US20250129135A1, “Multi-Agonist and Use Thereof” (priority 2021, published 2025).
Starred links: 1 amine or outer side, 2 acyl side, 3 side chain; linkers in the order of their positions; H or OH if unused. Non-standard residues stand in square brackets, D forms with d. Residues, ends and D or L forms follow the SMILES beside them. Groups on a side chain read outwards from the residue. *: point of attachment. C20 diacid = O=C(O)CCCCCCCCCCCCCCCCCCC(=O)*; αMePhe(2-F) = C[C@](N)(Cc1ccccc1F)C(=O)O; γGlu = O=C(O)[C@H](CCC(=O)[*:2])N[*:1]; αMeF = C[C@](N)(Cc1ccccc1)C(=O)O; αMeL = CC(C)C[C@](C)(N)C(=O)O; AEEA = NCCOCCOCC(=O)O; Ac3c = NC1(C(=O)O)CC1; Aib = CC(C)(N)C(=O)O

How the values were obtained:
[1] = system: human primary liver cells; type: cell-based; settings: for Rel. A (Relative Activity) on human primary liver cells: relative to GCG
Method: The cAMP levels produced by compounds on human primary liver cells were determined in this experiment. Human primary liver cells were purchased from Lonza (cell product number HUCPG).
Frozen human primary liver cells were placed in a 37° C. constant temperature water bath for rapid thawing and recovery. The cell solution was transferred to 10 ml of HBSS for resuspension, and centrifuged at 1000 rpm for 5 minutes at room temperature.
(§1) 10 μL cell suspension was added to each well in the 384 well plate. […] Using the ECHO liquid transfer system, 100 nL of the prepared compound solution was added to the corresponding cell suspensions in the 384 well plate, rotated and shaken at 1000 rpm for 1 minute to mix evenly, and then incubated at room temperature for 60 minutes. 10 μL of detection reagent was added to each well after drug incubation was completed, and incubation was performed for 60 minutes.

[2] = biological target: T1, Human GIP R (Homo sapiens, UniProt P48546); assay: cAMP (HTRF) activity in CHO cells stably overexpressing GIP receptor; type: cell-based; settings: for Human GIP R Rel. A (Relative Activity): EC50 of human GIP / EC50 of compound; for EC50: stable transfected cell cAMP activity, at least 3 independent tests
T1 construct: expressed in transfected cells; host or cells: CHO
T1 sequence (P48546 22-466): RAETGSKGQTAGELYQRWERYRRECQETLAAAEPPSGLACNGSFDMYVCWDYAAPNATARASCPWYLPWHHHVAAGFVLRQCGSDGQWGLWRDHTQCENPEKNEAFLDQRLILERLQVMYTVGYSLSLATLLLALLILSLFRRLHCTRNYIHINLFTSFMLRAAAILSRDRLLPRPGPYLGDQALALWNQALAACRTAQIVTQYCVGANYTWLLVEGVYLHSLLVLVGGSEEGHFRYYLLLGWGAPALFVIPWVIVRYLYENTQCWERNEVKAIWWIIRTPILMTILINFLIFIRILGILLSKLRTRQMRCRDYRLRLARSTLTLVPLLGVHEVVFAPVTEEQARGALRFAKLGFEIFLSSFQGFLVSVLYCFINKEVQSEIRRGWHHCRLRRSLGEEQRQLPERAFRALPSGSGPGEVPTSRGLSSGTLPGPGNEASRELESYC
Method: (§2) By measuring the cAMP signal response levels of the aforementioned cells, the agonistic activity of individual compound towards the corresponding receptor was determined. The intracellular cAMP content was measured using reagent kit available from Cisbio Corp. based on HTRF (homogeneous time-resolved fluorescence) technology.
(§3) The cell fluid was transferred to 10 ml of HBSS for resuspension, and centrifuged at 1000 rpm for 5 minutes at room temperature.
(§4) 10 μL cell suspension was added to each well in the 384 well plate. […] Using the ECHO liquid transfer system, 100 nL of the prepared compound solution was added to the corresponding cell suspensions in the 384 well plate, rotated and shaken at 1000 rpm for 1 minute to mix evenly, and then incubated at room temperature for 60 minutes. 10 μL of detection reagent was added to each well after drug incubation was completed, and incubation was performed in the kit at room temperature for 60 minutes. […] GraphPad Prism 5 plotting software was used to create compound concentration response curves and EC50 (nM) values was calculated.

[3] = system: RIN-m5F cells; type: cell-based, rat; settings: for Rel. A (Relative Activity) on RIN-m5F: relative to GLP-1(7-37)
Method: This experiment measured the cAMP level produced by the compound on RIN-mF cells.
Frozen […] cells were placed in a 37° C. constant temperature water bath for rapid thawing and recovery. The cell solution was transferred to 10 ml of HBSS for resuspension, and centrifuged at 1000 rpm for 5 minutes at room temperature.
as §1, with “to each wells after drug” for “to each well after drug”

[4] = system: 3T3-L1 adipocytes; settings: for Rel. A (Relative Activity) on 3T3-L1 adipocyte: relative to GIP
Method: Mouse 3T3-L1 precursor adipocytes can be induced to differentiate into mature adipocytes. […] After the cells became full and contacted with each other, DMEM differentiation medium containing 20% FBS, 0.5 mM IBMX, 0.4 ug/mL dexamethasone, and 5 ug/mL insulin was used to induce differentiation of 3T3-L1 adipocyte. After 5 days of induction and cultivation, DMEM medium containing […], 4 ug/ml insulin, and 10 uM rosiglitazone was used to continue induction and cultivation for 3 days. Then, DMEM medium containing 10% FBS was used to continue cultivation for 2-3 days to induce mature 3T3-L1 adipocytes.
The cAMP level produced by the compound on 3T3-L1 adipocytes was determined in this experiment. The tested compound solution was diluted step by step according to a concentration gradient of 3 times, to obtain a total of 10 series of concentration solutions. The solutions were added to induced mature 3T3-L1 adipocytes and incubated at room temperature for 60 minutes. 10 μL detection reagent in the kit was added to each well after drug incubation, and incubated at room temperature for another 60 minutes. […] GraphPad Prism 5 plotting software was used to create compound concentration-effect curves and calculation was performed.

[5] = biological target: T2, Human GCG R (Homo sapiens, UniProt P47871); assay: cAMP (HTRF) activity in HEK-293 cells stably overexpressing human GCG receptor; type: cell-based; settings: for Human GCG R Rel. A (Relative Activity): EC50 of human GCG / EC50 of compound
T2 construct: expressed in transfected cells; host or cells: HEK-293
Method: as §2, §3, §4

[6] = biological target: Human GLP-1R (Homo sapiens, UniProt P43220); assay: cAMP (HTRF) activity in HEK-293 cells stably overexpressing human GLP-1 receptor; type: cell-based; design: expressed in transfected cells; host or cells: HEK-293; settings: for Human GLP-1R Rel. A (Relative Activity): EC50 of human GLP-1 (7-37) / EC50 of compound
Method: as §2, §3, §4

[7] = stable transfected cell cAMP activity, at least 3 independent tests

Human GLP-1R, sequence (P43220 24-463): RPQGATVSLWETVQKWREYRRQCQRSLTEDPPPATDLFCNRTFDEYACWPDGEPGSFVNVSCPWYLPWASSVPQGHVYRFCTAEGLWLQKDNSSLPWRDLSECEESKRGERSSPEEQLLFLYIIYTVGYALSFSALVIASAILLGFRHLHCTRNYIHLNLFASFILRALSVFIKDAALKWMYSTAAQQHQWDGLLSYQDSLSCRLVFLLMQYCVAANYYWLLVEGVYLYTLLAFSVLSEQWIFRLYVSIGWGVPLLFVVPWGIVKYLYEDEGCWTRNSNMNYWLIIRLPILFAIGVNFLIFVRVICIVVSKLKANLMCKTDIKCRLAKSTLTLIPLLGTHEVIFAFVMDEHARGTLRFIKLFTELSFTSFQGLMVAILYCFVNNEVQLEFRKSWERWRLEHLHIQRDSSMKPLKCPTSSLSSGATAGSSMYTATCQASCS
T2 sequence (P47871 26-477): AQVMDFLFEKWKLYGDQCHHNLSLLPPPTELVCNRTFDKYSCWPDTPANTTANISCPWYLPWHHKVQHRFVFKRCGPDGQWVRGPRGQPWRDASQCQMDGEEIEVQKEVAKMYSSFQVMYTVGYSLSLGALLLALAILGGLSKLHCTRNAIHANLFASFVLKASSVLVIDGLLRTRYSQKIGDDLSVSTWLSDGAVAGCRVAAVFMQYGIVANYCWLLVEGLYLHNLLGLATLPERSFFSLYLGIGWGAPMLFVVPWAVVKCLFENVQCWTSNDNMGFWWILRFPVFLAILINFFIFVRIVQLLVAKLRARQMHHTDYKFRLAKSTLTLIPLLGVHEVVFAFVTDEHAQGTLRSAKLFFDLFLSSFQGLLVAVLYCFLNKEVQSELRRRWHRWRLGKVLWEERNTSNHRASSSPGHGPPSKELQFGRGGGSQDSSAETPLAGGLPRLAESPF

Structure (SMILES)	EC50 [1] [nM]	Rel. A (Relative Activity) on human primary liver cells [1] [%]	Human GIP R Rel. A (Relative Activity) [2] [%]	EC50 [2] [nM]	EC50 [3] [nM]	Rel. A (Relative Activity) on RIN-m5F [3] [%]	EC50 [4] [nM]	Rel. A (Relative Activity) on 3T3-L1 adipocyte [4] [%]	Human GCG R Rel. A (Relative Activity) [5] [%]	EC50 [5, 7] [nM]	Human GLP-1R Rel. A (Relative Activity) [6] [%]	EC50 [6, 7] [nM]
CC[C@H](C)[C@H](NC(=O)[C@H](Cc1ccccc1)NC(=O)[C@H](C)NC(=O)C(C)(C)NC(=O)[C@H](CCC(N)=O)NC(=O)[C@H](C)NC(=O)[C@H](CCCCNC(=O)COCCOCCNC(=O)COCCOCCNC(=O)CC[C@H](NC(=O)CCCCCCCCCCCCCCCCCCC(=O)O)C(=O)O)NC(=O)[C@H](CCCCN)NC(=O)[C@H](CC(=O)O)NC(=O)[C@H](CC(C)C)NC(=O)[C@](C)(CC(C)C)NC(=O)[C@@H](NC(=O)[C@H](CO)NC(=O)[C@H](Cc1ccc(O)cc1)NC(=O)[C@H](CC(=O)O)NC(=O)[C@H](CO)NC(=O)[C@@H](NC(=O)[C@](C)(Cc1ccccc1F)NC(=O)[C@@H](NC(=O)CNC(=O)[C@H](Cc1c[nH]cn1)NC(=O)C(C)(C)NC(=O)[C@@H](N)Cc1ccc(O)cc1)[C@@H](C)O)[C@@H](C)O)[C@@H](C)CC)C(=O)N[C@@H](CCC(=O)O)C(=O)N[C@@H](Cc1ccc(O)cc1)C(=O)N[C@@H](CC(C)C)C(=O)N[C@@H](CC(C)C)C(=O)N[C@@H](CCC(=O)O)C(=O)NC(C)(C)C(=O)N[C@@H](Cc1c[nH]cn1)C(=O)N1CCC[C@H]1C(=O)N[C@@H](CO)C(=O)N[C@@H](CO)C(=O)NCC(=O)N[C@@H](CCC(N)=O)C(=O)N1CCC[C@H]1C(=O)N1CCC[C@H]1C(=O)N1CCC[C@H]1C(=O)N[C@@H](CO)C(N)=O [Compound 6] (H-Y[Aib]HGT[αMePhe(2-F)]TSDYSI[αMeL]LDKK([AEEA-AEEA-γGlu-C20 diacid])AQ[Aib]AFIEYLLE[Aib]HPSSGQPPPS-NH2; N-terminus assumed)	0.299	1301.34	1292.86	0.014	1.59	64.74	1.01	374.58	98.28	0.058	220.00	0.02
CC[C@H](C)[C@H](NC(=O)[C@H](Cc1ccccc1)NC(=O)[C@H](C)NC(=O)C(C)(C)NC(=O)[C@H](CCC(N)=O)NC(=O)[C@H](C)NC(=O)[C@H](CCCCNC(=O)COCCOCCNC(=O)COCCOCCNC(=O)CC[C@H](NC(=O)CCCCCCCCCCCCCCCCCCC(=O)O)C(=O)O)NC(=O)[C@H](CCCCN)NC(=O)[C@H](CC(=O)O)NC(=O)[C@H](CC(C)C)NC(=O)[C@](C)(CC(C)C)NC(=O)[C@@H](NC(=O)[C@H](CO)NC(=O)[C@H](Cc1ccc(O)cc1)NC(=O)[C@H](CC(=O)O)NC(=O)[C@H](CO)NC(=O)[C@@H](NC(=O)[C@](C)(Cc1ccccc1F)NC(=O)[C@@H](NC(=O)CNC(=O)[C@H](CCC(N)=O)NC(=O)C(C)(C)NC(=O)[C@@H](N)Cc1ccc(O)cc1)[C@@H](C)O)[C@@H](C)O)[C@@H](C)CC)C(=O)N[C@@H](CCC(=O)O)C(=O)N[C@@H](Cc1ccccc1)C(=O)N[C@@H](CC(C)C)C(=O)N[C@@H](CC(C)C)C(=O)N[C@@H](CCC(=O)O)C(=O)NCC(=O)N[C@@H](CCCNC(=N)N)C(=O)N1CCC[C@H]1C(=O)N[C@@H](CO)C(=O)N[C@@H](CO)C(=O)NC(C)(C)C(=O)N[C@@H](Cc1c[nH]cn1)C(=O)N1CCC[C@H]1C(=O)N1CCC[C@H]1C(=O)N1CCC[C@H]1C(=O)N[C@@H](CO)C(N)=O [Compound 25]	0.649	599.54	1392.31	0.013	0.202	510.89	0.918	414.16	167.65	–	141.94	–
CC[C@H](C)[C@H](NC(=O)[C@H](Cc1ccccc1)NC(=O)[C@H](C)NC(=O)C(C)(C)NC(=O)[C@H](CCC(N)=O)NC(=O)[C@H](C)NC(=O)[C@H](CCCCNC(=O)COCCOCCNC(=O)COCCOCCNC(=O)CC[C@H](NC(=O)CCCCCCCCCCCCCCCCCCC(=O)O)C(=O)O)NC(=O)[C@H](CCCCN)NC(=O)[C@H](CC(=O)O)NC(=O)[C@H](CC(C)C)NC(=O)[C@](C)(CC(C)C)NC(=O)[C@@H](NC(=O)[C@H](CO)NC(=O)[C@H](Cc1ccc(O)cc1)NC(=O)[C@H](CC(=O)O)NC(=O)[C@H](CO)NC(=O)[C@@H](NC(=O)[C@](C)(Cc1ccccc1)NC(=O)[C@@H](NC(=O)CNC(=O)[C@H](CCC(N)=O)NC(=O)C(C)(C)NC(=O)[C@@H](N)Cc1ccc(O)cc1)[C@@H](C)O)[C@@H](C)O)[C@@H](C)CC)C(=O)N[C@@H](CCC(=O)O)C(=O)N[C@@H](Cc1ccccc1)C(=O)N[C@@H](CC(C)C)C(=O)N[C@@H](CC(C)C)C(=O)N[C@@H](CCC(=O)O)C(=O)N[C@@H](CO)C(=O)NC(C)(C)C(=O)N1CCC[C@H]1C(=O)N[C@@H](CO)C(=O)N[C@@H](CO)C(=O)NCC(=O)N[C@@H](C)C(=O)N1CCC[C@H]1C(=O)N1CCC[C@H]1C(=O)NC1(C(=O)N[C@@H](CO)C(N)=O)CC1 [Compound 28] (H-Y[Aib]QGT[αMeF]TSDYSI[αMeL]LDKK([AEEA-AEEA-γGlu-C20 diacid])AQ[Aib]AFIEFLLES[Aib]PSSGAPP[Ac3c]S-NH2)	5.21	74.74	1645.45	0.011	0.784	131.63	9.85	38.61	37.01	–	183.33	–
